Results on 1 compound are retold here after US10774080B2, “Pyrimidine compound as JAK kinase inhibitor” (THERAVANCE BIOPHARMA R&D IP, LLC, priority 2017, dated 2020).

The subject of data set [1] is TSLP-induced TARC release from PBMCs. As to the kind of experiment: Assay 4: TSLP-induced TARC assay in human PBMC. In kind it is cell-based. The following applies: 10 ng/mL TSLP, 48 hours, read-out: pIC50 for inhibition of TSLP induced TARC (converted). The text has this: Assay 4: In Vitro TSLP-Induced TARC Assay in Human PBMC
The binding of TSLP to its receptor induces a conformational change that activates JAK1 and JAK2 to phosphorylate various transcription factors including STAT3 and STAT5. In skin-resident immune cells, this triggers a cascade of intracellular events that result in cell proliferation, anti-apoptosis, dendritic cell migration, and production of Th2 cytokines and chemokines. During the acute phase of atopic dermatitis, the skin is invaded by Th2 lymphocytes. In primary peripheral blood mononuclear cells (PBMCs), TSLP has a pro-inflammatory effect by activating myeloid dendritic cells to attract and stimulate T cells. This process is mediated by thymus and activation-regulated chemokine (TARC/CCL17). […]
In this assay, it was shown that TSLP stimulation induces TARC release from PBMCs, and that this response is attenuated in a dose-dependent manner upon treatment with compound (I). […] After 48 hours, the cell supernatants were collected, and TARC was measured using Human CCL17/TARC Quantikine ELISA Kit.
For dose-response analysis, percent inhibition data were plotted vs. compound concentrations, and IC50 values were determined from a 4-parameter robust fit model with the GraphPad Prism software. Results may also be expressed as the negative logarithm of the IC50 value, pIC50.

A short description of data set [2]: Assay 7: epidermal and dermal deposition in freshly excised human skin. In kind it is in vitro ADME. The following applies: 0.5% ointment, about 40 hours continuous exposure. Here is the method:
(§1) Assay 7: Ex Vivo JAK Pharmacodynamic (PD) Assay Using Human Freshly Excised Skin An ex vivo JAK pharmacodynamics (PD) assay was conducted using human isolated skin tissue. The PD assay used fresh human skin (dermatome of 750 μm thickness) that was mounted in static Franz cells with a surface area of ˜0.5 cm^2. The receiver chambers of the Franz cells were filled with warm (37° C.) cornification media and placed in an incubator at 37° C. The skin was topically dosed with 10 μL ([…]) of compound (I) or vehicle and was left undisturbed overnight (˜24 hours). The next day, with no re-application of the test compound or vehicle, the media was replaced with a Th1-skewed stimulation cocktail consisting of TNFα, IFNγ and IL-12. The skin was left undisturbed for an additional 16 hours, and then harvested and processed for RNA extraction and qPCR of biomarkers: CXCL10, CCL2. GAPDH was used as an internal standard. The compound (I) was formulated in an ointment formulation at 0.5% strength. A total of three skin donors (tested in quadruplicates/sample/treatment) were used. Treatment effect was calculated as the percent increase or decrease in stimulation compared to the vehicle group. [table]

The next data set addresses T1, JAK2 (Homo sapiens, UniProt O60674).
T1 construct: GST; purchased Life Technologies
Kind of data set: Biochemical JAK kinase assay (LanthaScreen), JAK2. The following applies: converted from pIC50 by Cheng-Prusoff; ATP at Km 3 μM; read-out: JAK 2 (pKi) (converted). The protocol: (§2) Assay 1: Biochemical JAK and Tyk2 Kinase Assays A panel of four LanthaScreen JAK biochemical assays (JAK1, 2, 3 and Tyk2) were carried in a common kinase reaction buffer (50 mM HEPES, pH 7.5, 0.01% Brij-35, 10 mM MgCl2, and 1 mM EGTA). Recombinant GST-tagged JAK enzymes and a GFP-tagged STAT1 peptide substrate were obtained from Life Technologies. Serially or discretely diluted compounds were pre-incubated with each of the four JAK enzymes and the substrate in white 384-well microplates (Corning) at ambient temperature for 1 h. ATP was subsequently added to initiate the kinase reactions in 10 μL total volume, with 1% DMSO. […] The plates were allowed to incubate at ambient temperature for 1 h before being read on the EnVision reader (Perkin Elmer). Emission ratio signals (520 nm/495 nm) were recorded and utilized to calculate the percent inhibition values based on DMSO and background controls. For dose-response analysis, percent inhibition data were plotted vs. compound concentrations, and IC50 values were determined from a 4-parameter robust fit model with the Prism software (GraphPad Software). Results were expressed as pIC50 (negative logarithm of IC50) and subsequently converted to pKi (negative logarithm of dissociation constant, Ki) using the Cheng-Prusoff equation.
A general note: TR-FRET usually uses a lanthanide donor and a delayed reading to cut background.

Another data set concerns the target T2, Tyk2 (Homo sapiens, UniProt P29597).
T2 construct: GST; purchased Life Technologies
Kind of data set: Biochemical Tyk2 kinase assay (LanthaScreen). The conditions noted are these: read-out: Tyk 2 (pKi) (converted). The protocol: as §2

Data set [3] relates to TPA-induced increase in ear thickness. Kind of data set: Assay 10: in vivo TPA-induced acute dermatitis model in mice. More on the design: species or system female Balb/c mice. Here is the method: Assay 10: In Vivo TPA-Induced Acute Dermatitis Model in Mice
The objective of this assay is to assess the anti-inflammatory effect of compound (I), in a model of acute dermatitis being studied for cutaneous inflammatory conditions such as atopic dermatitis (Dong et al., J Pharmacol Exp Ther, 2013, 344, 436-446).
Topical dermal application of phorbol ester TPA in mice causes an inflammatory response that is characterized by edema and neutrophil influx at the early phase (2-24 h) and by epidermal cell proliferation at the later phase (24-48 h) (Griffiths et al., Agents and Actions, 1988, 25, 344-351). In this model, female Balb/c mice were topically administered with 20 μl/ear of either vehicle or TPA (2.5 μg). For the solution formulation, vehicle (1:7 DMSO:Acetone) or test compound was topically applied 30 min before and 15 min after TPA administration. For the ointment formulation, vehicle or compound (I) (0.5% strength) was applied 30 min before TPA. The degree of inflammation was assessed as the change in ear thickness at 6 hours after TPA application.

The subject of another data set is CXCL10 gene expression. Kind of data set: Assay 7: ex vivo JAK PD assay, freshly excised human skin, CXCL10. The following applies: 0.5% ointment, about 40 hours continuous exposure, Th1-skewed stimulation (TNFα, IFNγ, IL-12), vs vehicle. Here is the method:
as §1

“Also recorded” adds a separate entry of the source. Where two headings read alike, the source gives them in different places.

T2 sequence (P29597 whole entry): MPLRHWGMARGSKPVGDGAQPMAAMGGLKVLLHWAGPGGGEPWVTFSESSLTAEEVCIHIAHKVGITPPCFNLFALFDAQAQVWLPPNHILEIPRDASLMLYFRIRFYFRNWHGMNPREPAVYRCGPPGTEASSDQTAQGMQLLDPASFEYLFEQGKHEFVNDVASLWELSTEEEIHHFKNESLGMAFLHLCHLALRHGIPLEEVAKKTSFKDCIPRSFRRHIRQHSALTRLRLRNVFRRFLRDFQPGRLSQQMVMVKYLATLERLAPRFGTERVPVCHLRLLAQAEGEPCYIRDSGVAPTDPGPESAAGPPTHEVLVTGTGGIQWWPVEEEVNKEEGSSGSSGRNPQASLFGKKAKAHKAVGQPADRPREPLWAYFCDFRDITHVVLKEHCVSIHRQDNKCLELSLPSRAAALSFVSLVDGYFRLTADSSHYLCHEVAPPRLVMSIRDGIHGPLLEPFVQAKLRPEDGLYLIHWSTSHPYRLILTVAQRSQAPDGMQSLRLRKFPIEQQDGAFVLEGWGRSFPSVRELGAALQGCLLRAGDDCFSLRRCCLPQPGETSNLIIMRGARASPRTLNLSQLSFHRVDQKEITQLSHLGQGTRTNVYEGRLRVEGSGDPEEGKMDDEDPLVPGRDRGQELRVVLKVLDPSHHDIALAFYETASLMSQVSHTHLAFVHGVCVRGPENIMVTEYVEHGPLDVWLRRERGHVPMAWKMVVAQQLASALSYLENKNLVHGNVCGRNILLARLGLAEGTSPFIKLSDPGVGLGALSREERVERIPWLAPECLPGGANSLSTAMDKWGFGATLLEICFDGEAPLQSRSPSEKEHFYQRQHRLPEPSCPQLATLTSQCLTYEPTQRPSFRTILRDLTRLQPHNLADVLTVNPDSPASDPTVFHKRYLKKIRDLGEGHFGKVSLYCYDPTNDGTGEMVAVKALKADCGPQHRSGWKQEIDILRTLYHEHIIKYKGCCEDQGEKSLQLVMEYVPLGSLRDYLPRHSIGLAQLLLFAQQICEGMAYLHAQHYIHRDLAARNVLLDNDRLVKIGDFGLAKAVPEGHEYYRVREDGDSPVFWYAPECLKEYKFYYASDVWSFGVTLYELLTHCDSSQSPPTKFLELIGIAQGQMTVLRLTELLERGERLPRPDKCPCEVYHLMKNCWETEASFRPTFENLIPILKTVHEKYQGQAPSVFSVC
T1 sequence (O60674 whole entry): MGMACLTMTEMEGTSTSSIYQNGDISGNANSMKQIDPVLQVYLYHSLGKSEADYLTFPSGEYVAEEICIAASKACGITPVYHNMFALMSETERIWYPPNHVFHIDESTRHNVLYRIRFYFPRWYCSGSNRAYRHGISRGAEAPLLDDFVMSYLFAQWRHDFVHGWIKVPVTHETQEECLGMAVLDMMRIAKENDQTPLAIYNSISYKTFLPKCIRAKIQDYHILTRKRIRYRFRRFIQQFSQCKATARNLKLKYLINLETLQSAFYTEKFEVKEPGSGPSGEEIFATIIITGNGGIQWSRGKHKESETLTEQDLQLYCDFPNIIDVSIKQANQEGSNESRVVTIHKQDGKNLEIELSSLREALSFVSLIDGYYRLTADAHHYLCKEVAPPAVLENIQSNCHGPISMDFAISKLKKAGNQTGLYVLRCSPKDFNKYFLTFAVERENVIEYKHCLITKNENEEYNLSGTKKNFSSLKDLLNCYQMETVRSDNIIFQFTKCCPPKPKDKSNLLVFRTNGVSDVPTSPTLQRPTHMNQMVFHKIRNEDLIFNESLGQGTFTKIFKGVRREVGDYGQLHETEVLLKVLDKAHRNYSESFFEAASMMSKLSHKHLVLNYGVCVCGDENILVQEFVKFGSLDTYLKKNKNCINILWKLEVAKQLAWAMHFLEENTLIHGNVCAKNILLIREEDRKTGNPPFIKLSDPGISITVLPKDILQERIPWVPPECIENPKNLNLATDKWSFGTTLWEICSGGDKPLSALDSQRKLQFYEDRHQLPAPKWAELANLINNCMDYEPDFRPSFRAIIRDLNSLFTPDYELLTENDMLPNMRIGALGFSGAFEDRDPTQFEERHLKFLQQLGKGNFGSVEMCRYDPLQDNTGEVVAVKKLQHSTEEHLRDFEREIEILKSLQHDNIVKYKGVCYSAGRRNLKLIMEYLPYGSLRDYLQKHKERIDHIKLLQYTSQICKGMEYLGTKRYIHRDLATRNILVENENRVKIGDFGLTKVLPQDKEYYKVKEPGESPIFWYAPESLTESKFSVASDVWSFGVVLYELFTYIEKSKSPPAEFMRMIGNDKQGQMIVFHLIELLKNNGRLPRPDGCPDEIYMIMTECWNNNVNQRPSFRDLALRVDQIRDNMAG

On to `CCS(=O)(=O)N1[C@@H]2CCC[C@H]1C[C@H](N(C)c1nc(CO)c(F)c(Nc3cc(C)[nH]n3)n1)C2` [Compound (I), (2-(((1R,3s,5S)-9-(ethylsulfonyl)-9-azabicyclo[3.3.1]nonan-3-yl)(methyl)amino)-5-fluoro-6-((5-methyl-1H-pyrazol-3-yl)amino)pyrimidin-4-yl)methanol], for which the IC50 in data set [1] is 15800 pM. The “PK-Tissue concentration (μM, mean ± SD) Dermis” value in data set [2] is 6.1 ± 5.3 µM. In addition, in data set [2], the “PK-Tissue concentration (μM, mean ± SD) Epidermis” value amounted to 116.5 ± 91.9 µM. Also, the Ki at JAK2 is 63.1 pM; on Tyk2 it was 126 pM. In addition, the “Inhibition of TPA-induced increase in ear thickness (mean % inh ± SEM (n))” value is 34.9% in data set [3]; 6.6% ± 1.1% in data set [3] (30 μg/ear dosed as solution, 6 hours after TPA); 2.4% ± 0.7% in data set [3] (100 μg/ear dosed as solution, 6 hours after TPA); 35.5% ± 3.1% in data set [3] (300 μg/ear dosed as solution, 6 hours after TPA); 54.8 ± 2.6% in data set [3] (1000 μg/ear dosed as solution (highest dose), 6 hours after TPA); 34.9% ± 3.3% (12) in data set [3] (0.5% Ointment, 20 μl/ear, 30 min before TPA, 6 hours after TPA). Also, in data set [3] (dosed as a solution), the “effect on TPA-induced increase in ear thickness (in words)” value is “dose-dependent effect; also recorded: dose dependent manner”. Also, in the data set with CXCL10 gene expression, the “PD-% Inhibition (mean ± SD) CXCL10” value worked out at 90.1%.
